Laboratory results reported in PMC4979206, “Structural basis of unique ligand specificity of KAI2-like protein from parasitic weed Striga hermonthica” (Scientific Reports, 2016).
“And” between values parts separate entries of the source, which are not always exact repeats. Equal entries are not always repeated. “Also recorded” adds a separate entry of the source.

Key:
ShKAI2iB [1] = biological target: T1, ShKAI2iB (Striga hermonthica, UniProt A0A0M3PN85, C270S); experiment: ITC binding to ShKAI2iB (wild type)
T1 sequence (A0A0M3PN85 1-270 C270S): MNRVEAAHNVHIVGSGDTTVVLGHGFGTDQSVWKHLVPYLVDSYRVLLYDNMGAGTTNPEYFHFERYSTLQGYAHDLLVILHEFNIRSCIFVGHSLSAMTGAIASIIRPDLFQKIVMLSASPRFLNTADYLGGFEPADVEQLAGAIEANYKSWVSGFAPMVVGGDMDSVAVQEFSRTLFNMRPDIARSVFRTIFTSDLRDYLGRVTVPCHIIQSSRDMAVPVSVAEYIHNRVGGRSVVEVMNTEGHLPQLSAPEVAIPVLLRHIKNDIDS
Protocol: (§1) The coding sequence cDNA of ShKAI2iB was amplified by PCR using total complementary DNA from the total RNA of 1-day conditioned Striga seeds. ShKAI2iB (1–270, C270S) was designed for crystallization and other assays. For expression in Escherichia coli, the PCR product was cloned into an expression vector pGEX-6P-3 (GE Healthcare) and subsequently transformed into E. coli strain Rosetta (DE3) (Novagen). IPTG-induced overexpression was performed for 20 h at 25 °C. For purification, cell pellets were lysed by sonication in buffer A (20 mM Tris-HCl, pH 8.0, 0.3 M NaCl, 1 mM DTT), and the soluble fraction separated by centrifugation was purified using Glutathione Sepharose 4B resin (GE Healthcare) and a Resource Q anion-exchange column (GE Healthcare). ShKAI2iB mutants were overexpressed and purified with the same procedure as wild-type protein. For crystallization, buffer exchange accompanied by concentration was performed using Vivaspin 20 (5,000 MWCO PES) (Sartorius). Purified ShKAI2iB was dialyzed against buffer B (20 mM HEPES-NaOH, pH 8.0, 50 mM NaCl) for the ITC experiments and the intrinsic fluorescence assay.
(§2) Binding assays of ShKAI2iB and KAR1 were performed using a MicroCal iTC200 isothermal titration calorimeter (GE Healthcare). Prior to the ITC experiments, concentrated ShKAI2iB was dialyzed against a buffer consisting of 20 mM HEPES-NaOH, pH 8.0, and 50 mM NaCl to remove dithiothreitol and then adjusted to a final concentration of 150 μM. The sample cell was filled with ShKAI2iB solution (204 μl). […] of 3 mM KAR1 or 3 mM rac-GR24 (equimolar mixture of two enantiomers: GR24^5DS and GR24^ent-5DS) was injected into the prepared protein solution by 20 consecutive 2.0 μl aliquots at 150 s intervals at 10 °C. The first injection volume was 0.4 μl, and the observed thermal peak was excluded from the data analyses. Duplicate experiments were performed independently. A negative control was made by titrating 3 mM KAR1 into a buffer (20 mM HEPES, pH 8.0, 50 mM NaCl) in the same manner. Data fitting was performed using Origin software in the “one set of sites” mode. The dissociation constant (KD) values were calculated from duplicate thermograms (mean ± S.D.).

ShKAI2iB [2] = biological target: T1, ShKAI2iB; experiment: Intrinsic fluorescence binding assay
Protocol: The coding sequence cDNA of ShKAI2iB was amplified by PCR using total complementary DNA from the total RNA of 1-day conditioned Striga seeds. ShKAI2iB (1–270, C270S) was designed for crystallization and other assays. For expression in Escherichia coli, the PCR product was cloned into an expression vector pGEX-6P-3 (GE Healthcare) and subsequently transformed into E. coli strain Rosetta (DE3) (Novagen). IPTG-induced overexpression was performed for 20 h at 25 °C. […] Purified ShKAI2iB was dialyzed against buffer B (20 mM HEPES-NaOH, pH 8.0, 50 mM NaCl) for the ITC experiments and the intrinsic fluorescence assay.
KD values were also determined by using intrinsic fluorescence assays. Fluorescence measurements were conducted as previously described[16] with minor modifications. […] Flat-bottomed, black 96 well plates were used to read fluorescence intensity using a Tecan Infinite M1000 monochromator. Measurements were taken at room temperature under a 285 nm excitation wavelength, a 333 nm emission wavelength, 50 flashes, and a 400 Hz flash frequency with a gain of 70 and a 2 μs integration time. ΔF (rfu, relative fluorescence units) was calculated by subtracting the fluorescence of the DMSO control. […]

ShKAI2iB V139L = ShKAI2iB V139L (Striga hermonthica, UniProt A0A0M3PN85, C270S/V139L); experiment: ITC binding to ShKAI2iB V139L mutant
ShKAI2iB V139L, sequence (A0A0M3PN85 1-270 V139L/C270S): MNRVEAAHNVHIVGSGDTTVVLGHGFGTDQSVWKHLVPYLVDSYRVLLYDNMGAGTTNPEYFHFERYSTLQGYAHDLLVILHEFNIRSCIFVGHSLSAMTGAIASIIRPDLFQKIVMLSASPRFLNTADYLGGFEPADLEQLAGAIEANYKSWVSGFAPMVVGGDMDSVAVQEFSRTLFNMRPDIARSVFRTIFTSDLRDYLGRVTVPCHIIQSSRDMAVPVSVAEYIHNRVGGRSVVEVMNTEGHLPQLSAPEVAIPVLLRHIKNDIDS
Protocol: as §1
(§3) Binding assays of ShKAI2iB and KAR1 were performed using a MicroCal iTC200 isothermal titration calorimeter (GE Healthcare). Prior to the ITC experiments, concentrated ShKAI2iB was dialyzed against a buffer consisting of 20 mM HEPES-NaOH, pH 8.0, and 50 mM NaCl to remove dithiothreitol and then adjusted to a final concentration of 150 μM. The sample cell was filled with ShKAI2iB solution (204 μl). Two microliters of 3 mM KAR1 or 3 mM rac-GR24 (equimolar mixture of two enantiomers: GR24^5DS and GR24^ent-5DS) was injected into the prepared protein solution by 20 consecutive 2.0 μl aliquots at 150 s intervals at 10 °C. The first injection volume was 0.4 μl, and the observed thermal peak was excluded from the data analyses. Duplicate experiments were performed independently. […] The dissociation constant (KD) values were calculated from duplicate thermograms (mean ± S.D.). […]

ShKAI2iB L142A = ShKAI2iB L142A (Striga hermonthica, UniProt A0A0M3PN85, C270S/L142A); experiment: ITC binding to ShKAI2iB L142A mutant
ShKAI2iB L142A, sequence (A0A0M3PN85 1-270 L142A/C270S): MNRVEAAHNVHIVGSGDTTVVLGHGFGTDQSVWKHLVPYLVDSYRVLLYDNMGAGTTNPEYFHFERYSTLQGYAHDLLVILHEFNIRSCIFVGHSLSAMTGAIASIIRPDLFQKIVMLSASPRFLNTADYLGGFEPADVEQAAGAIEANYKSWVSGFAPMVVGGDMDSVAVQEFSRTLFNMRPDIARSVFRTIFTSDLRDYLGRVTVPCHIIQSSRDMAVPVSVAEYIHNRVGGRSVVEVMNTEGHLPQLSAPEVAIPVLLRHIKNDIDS
Protocol: as §1, §2
(§4) Supplementary Figure 4. Results of ITC experiments between ShKAI2iB mutants and KAR1. ITC experiments were performed b y titrating KAR1 into ShKA I2iB mutants (a, F194A; b, S95A; c, L142A; d, F190L; e, V139 L) or into buffer as a negat ive control (f). The upper panel illustrates raw ITC data. The bottom panel represents data of the enthalpy cha nge deri ved fr om the upper panel. Corres ponding […]
(§5) (1 picture or pasted object on this page, not shown here)

ShKAI2iB F190L = ShKAI2iB F190L (Striga hermonthica, UniProt A0A0M3PN85, C270S/F190L); experiment: ITC binding to ShKAI2iB F190L mutant
ShKAI2iB F190L, sequence (A0A0M3PN85 1-270 F190L/C270S): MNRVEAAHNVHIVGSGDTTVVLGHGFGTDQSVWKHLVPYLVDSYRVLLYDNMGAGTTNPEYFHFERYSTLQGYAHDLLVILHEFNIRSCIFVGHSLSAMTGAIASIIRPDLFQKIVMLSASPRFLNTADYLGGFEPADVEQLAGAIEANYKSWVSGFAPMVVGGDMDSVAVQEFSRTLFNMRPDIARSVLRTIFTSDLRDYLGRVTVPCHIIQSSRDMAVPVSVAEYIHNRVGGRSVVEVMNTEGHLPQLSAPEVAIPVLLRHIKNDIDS
Protocol: as §1, §3

ShKAI2iB F194A = ShKAI2iB F194A (Striga hermonthica, UniProt A0A0M3PN85, C270S/F194A); experiment: ITC binding to ShKAI2iB F194A mutant
ShKAI2iB F194A, sequence (A0A0M3PN85 1-270 F194A/C270S): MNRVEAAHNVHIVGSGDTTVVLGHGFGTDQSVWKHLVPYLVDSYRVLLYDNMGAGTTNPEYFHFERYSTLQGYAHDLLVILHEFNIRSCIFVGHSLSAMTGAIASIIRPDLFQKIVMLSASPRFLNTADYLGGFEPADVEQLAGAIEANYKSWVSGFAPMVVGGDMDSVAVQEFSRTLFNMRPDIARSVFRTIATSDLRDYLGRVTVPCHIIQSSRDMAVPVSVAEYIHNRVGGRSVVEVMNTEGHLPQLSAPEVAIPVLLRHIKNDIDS
Protocol: as §1, §2, §4, §5

ShKAI2iB S95A = experiment: ITC binding to ShKAI2iB S95A mutant; design: species or system Striga hermonthica
Protocol: as §1
Binding assays of ShKAI2iB and KAR1 were performed using a MicroCal iTC200 isothermal titration calorimeter (GE Healthcare). […] The dissociation constant (KD) values were calculated from duplicate thermograms (mean ± S.D.). […]

S. hermonthica = test system: S. hermonthica; design: method as in PMID 26228149; details: cited from earlier work
KAI2 [3] = test system: KAI2; design: method as in PMID 25126711; details: cited from earlier work
ShKAI2iB [4] = biological target: T1, ShKAI2iB; experiment: Enzymatic degradation (hydrolysis) assay of rac-GR24 with HPLC; format: biochemical; details: 10 μM rac-GR24, 6 μg ml^−1 protein, 3 h, 37 °C
Protocol: The enzymatic degradation assay of rac-GR24 was performed in a total volume of 1 ml of PBS buffer containing 10 μM rac-GR24. Purified OsD14[23] and ShKAI2iB were added at a final concentration of 6 μg ml^−1 and incubated for 3 h at 37 °C. Then 100 mg of NaCl and 100 μl of 0.1 M HCl were added to each reaction solution, and the reaction solutions were extracted with 400 μl of ethyl acetate three times. The ethyl acetate layers were combined and dried in vacuo and dissolved in 50 μl of methanol. For each layer, 10 μl was applied to the HPLC analyses. The reverse-phase chromatographic separation was performed on a Jasco HPLC system that was equipped with an HPLC pump of model PU 2080 (Jasco) and a photodiode array detector MD1510 (Jasco). The system was controlled by the ChromNAV (Ver. 1.18.07) software program (Jasco). The analytical column was a CAPCELL CORE C18 (Φ 4.6 × 100 mm, Shiseido). The analytes were eluted under gradient conditions using methanol ramped linearly to 90% methanol at 9 min and held for 4.5 min before resetting to the original conditions. The contents of rac-GR24 was calculated by the peak area at the retention time 6.2 min with the regression equation obtained from the calibration curve produced using a dilution series of rac-GR24 solution. […] Statistical differences between the groups were calculated with ANOVA analysis followed by Tukey–Kramer test.

KAI2 [5] = test system: KAI2; design: method as in PMID 25126711; details: cited from earlier work; remark: listed apart in the source

Cc1c2ccocc-2oc1=O [KAR1, 3-methyl-2H-furo [2,3-c] pyran-2-one]
Kd (ShKAI2iB [1]): 77.6 ± 3.4 µM
N (number of sites) (ShKAI2iB [1]; wild-type ShKAI2iB, ITC): 0.91 ± 0.05
ΔG (ShKAI2iB [1]; wild-type ShKAI2iB, ITC): –5.35 kcal/mol
ΔS (entropy change) (ShKAI2iB [1]; wild-type ShKAI2iB, ITC, 10 °C): –3.99 cal mol^–1 deg^–1
Kd (ShKAI2iB [2]): 70 ± 3.4 µM
ΔH (ShKAI2iB V139L): –12.87 ± 0.03 kcal mol^–1
ΔS (ShKAI2iB V139L): –24.8 cal mol^–1 deg^–1
Kd (ShKAI2iB V139L; KD, ITC): 35.6 µM and 36 µM
Kd (ShKAI2iB L142A): 196 ± 24 µM
ΔG (ShKAI2iB L142A; L142A mutant): –4.76 kcal/mol
ΔH (ShKAI2iB L142A; L142A mutant): –7.00 ± 0.70 kcal mol^–1
ΔS (ShKAI2iB L142A; L142A mutant): –7.90 cal mol^–1 deg^–1
ΔG (ShKAI2iB F190L): –4.75 kcal/mol
ΔH (ShKAI2iB F190L): –11.71 ± 8.89 kcal mol^–1
ΔS (ShKAI2iB F190L): –24.6 cal mol^–1 deg^–1
Kd (ShKAI2iB F194A): 107 ± 10 µM
change of ITC result versus wild type (ShKAI2iB F194A; F194A mutant): no significant change
ΔG (ShKAI2iB F194A; F194A mutant): –5.11 kcal/mol
ΔH (ShKAI2iB F194A; F194A mutant): –13.24 ± 63.94 kcal mol^–1
ΔS (ShKAI2iB F194A; F194A mutant): –28.7 cal mol^–1 deg^–1
heat change in ITC (binding) (ShKAI2iB S95A): almost no heat change; also recorded: abolishes binding
induction of germination of S. hermonthica (S. hermonthica): failed to induce germination
binding to KAI2 (KAI2 [3]): able to bind

CC1=CC(OC=C2C(=O)OC3c4ccccc4CC23)OC1=O (racemic) [rac-GR24]
heat change in ITC (binding) (ShKAI2iB [1]; wild-type ShKAI2iB, 3 mM ligand titrated): no detectable heat change
fluorescence change (binding) (ShKAI2iB [2]; wild-type ShKAI2iB): no detectable heat change or fluorescence change
hydrolysis by ShKAI2iB (ShKAI2iB [4]): not capable of hydrolyzing
hydrolysis by ShKAI2iB (ShKAI2iB [4]; listed as GR24): unable to bind and hydrolyze
binding to KAI2 (KAI2 [3]): able to bind
hydrolysis by KAI2 (KAI2 [5]): exhibits hydrolytic activity
